Results from patent US5965718A, “Analogs of sarcodictyin and eleutherobin” (priority 1998, dated 1999).
Entries after “also recorded” stand apart in the source; their conditions may differ.

Key:
[1] = system: tubulin; ovarian cancer cells (1A9, 1A9PTX10, 1A9PTX22); conditions: in words; for biological activity (tubulin polymerization and/or cytotoxicity), SAR statement: compared with natural products 7 and 8; for biological activity on modification of the alcohol component of the ester group: compared with the methyl ester (compound 600)
Protocol: (§1) FIG. 21 tabulates cytotoxicity data of sarcodictyins with the following tubulin polymerization and cytotoxicity properties of sarcodictyins: (a) The tubulin polymerization measurements were performed at 37° C. except for adjustments in drug concentration ([…]) and incubation time (90 min). (b) The cytotoxicity experiments were carried out as previously described (Giannakakou et al. J. Biol. Chem. 1995, 272, 17118-17125; Nicolaou et al. Angew. Chem. Int. Ed. Engl. 1997, 36, 2097-2103).
(§2) The synthesized sarcodictyin library (shown in FIG. 20) was screened for induction of tubulin polymerization using the filtration calorimetric assay and […] at 37° C. (results are listed in FIG. 20; Bollag et al. Cancer Res. 1995, 55, 2325-2333). These investigations were then followed by cytotoxicity studies with ovarian cancer cells (1A9) including two taxol-resistant lines (1A9PTX10 and 1A9PTX22; Giannakakou et al. J. Biol. Chem. 1995, 272, 17118-17125). The data reveal a number of important structure activity relationships (SARs).

[2] = system: tubulin; assay: induction of tubulin polymerization, filtration calorimetric assay; assay type: biochemical; conditions: 100 m compound at 37° C.; in words, compared with sarcodictyins A (7) and B (8); figures only in FIG. 20
Protocol: as §1, §2

[3] = system: taxol-resistant lines (1A9PTX10 and 1A9PTX22); assay: cytotoxicity against taxol-resistant tumor cell lines; assay type: cell-based; conditions: in words
Protocol: as §1, §2

[4] = system: ovarian cancer cells (1A9); assay type: cell-based; conditions: 1A9 and taxol-resistant lines; in words, compared with natural substances 7 and 8; figures only in FIG. 21
Protocol: as §1, §2

`COC(=O)/C1=C/[C@@H]2[C@@H](C(C)C)CC=C(C)[C@@H]2C[C@H](OC(=O)/C=C/c2ccccn2)[C@]2(C)C=C[C@@]1(OC)O2` [Compound 480] was tested, and the “biological activity (tubulin polymerization and/or cytotoxicity), SAR statement” value (shortened to “biological activity … SAR statement”) [1] was “considerable loss of activity”.

For `COC(=O)/C1=C/[C@@H]2[C@@H](C(C)C)CC=C(C)[C@@H]2C[C@H](OC(=O)/C=C/c2csc(C)n2)[C@]2(C)C=C[C@@]1(OC)O2` [Compound 490], the “biological activity … SAR statement” value [1] was “considerable loss of activity”.

`CCOC(=O)/C1=C/[C@@H]2[C@@H](C(C)C)CC=C(C)[C@@H]2C[C@H](OC(=O)/C=C/c2coc(C)n2)[C@]2(C)C=C[C@@]1(OC)O2` [Compound 500] was tested, and the “biological activity … SAR statement” value [1] was “considerable loss of activity”.

For `COC(=O)C1=CC2C(CC(OC(=O)/C=C/c3cn(C)cn3)C3(C)C=CC1(OC)O3)C(C)=CCC2C(C)C` (stereo not drawn) [Compound 600], the “biological activity … SAR statement” value [1] was “equal or superior biological activities”, the “tubulin polymerization properties / potencies” value [2] was “superior tubulin polymerization properties to those of either sarcodictyins A (7) or B (8)” and the “cytotoxicity / biological activity against the taxol-resistant cell lines” value (“cytotoxicity / biological activity” below) [3] was “Particularly striking; also recorded: enhanced biological activity”. The cytotoxicity potency [4] was “potencies comparable or higher that those of the natural substances”.

With `CCOC(=O)C1=CC2C(CC(OC(=O)/C=C/c3cn(C)cn3)C3(C)C=CC1(OC)O3)C(C)=CCC2C(C)C` (stereo not drawn) [Compound 610] the “biological activity … SAR statement” value [1] was “equal or superior biological activities”, the “biological activity on modification of the alcohol component of the ester group” value (“biological activity on modification” below) [1] was “enhancement of the biological activity” and the “tubulin polymerization properties / potencies” value [2] was “not always in line with their cytotoxicity effects”. The “cytotoxicity / biological activity” value [3] was “Particularly striking; also recorded: enhanced biological activity” and the cytotoxicity potency [4] was “potencies comparable or higher that those of the natural substances”.

With `CO[C@]12C=C[C@](C)(O1)[C@@H](OC(=O)/C=C/c1cn(C)cn1)C[C@H]1C(C)=CC[C@H](C(C)C)[C@H]1/C=C\2C(=O)OCCCl` [Compound 630] the “biological activity … SAR statement” value [1] was “equal or superior biological activities”, the “biological activity on modification” value [1] was “reversal of the trend” and the cytotoxicity potency [4] was “potencies comparable or higher that those of the natural substances”.

With `CO[C@]12C=C[C@](C)(O1)[C@@H](OC(=O)/C=C/c1cn(C)cn1)C[C@H]1C(C)=CC[C@H](C(C)C)[C@H]1/C=C\2C(=O)OCCCCc1ccccc1` [Compound 660] the “tubulin polymerization properties / potencies” value [2] was “modest” and the cytotoxicity potency [4] was “cytotoxicity comparable to, or better than, the natural products”.

`CCCCOC(=O)/C1=C/[C@@H]2[C@@H](C(C)C)CC=C(C)[C@@H]2C[C@H](OC(=O)/C=C/c2cn(C)cn2)[C@]2(C)C=C[C@@]1(OC)O2` [Compound 670] was tested, and the “cytotoxicity / biological activity” value [3] was “Particularly striking”.

For `CCCOC(=O)/C1=C/[C@@H]2[C@@H](C(C)C)CC=C(C)[C@@H]2C[C@H](OC(=O)/C=C/c2cn(C)cn2)[C@]2(C)C=C[C@@]1(OC)O2` [Compound 680], the “biological activity on modification” value [1] was “enhancement of the biological activity” and the “cytotoxicity / biological activity” value [3] was “Particularly striking”.

For `CO[C@]12C=C[C@](C)(O1)[C@@H](OC(=O)/C=C/c1cn(C)cn1)C[C@H]1C(C)=CC[C@H](C(C)C)[C@H]1/C=C\2C(=O)OCCOCc1ccccc1` [Compound 690], the “tubulin polymerization properties / potencies” value [2] was “modest” and the cytotoxicity potency [4] was “cytotoxicity comparable to, or better than, the natural products”.

`C=CCOC(=O)/C1=C/[C@@H]2[C@@H](C(C)C)CC=C(C)[C@@H]2C[C@H](OC(=O)/C=C/c2cn(C)cn2)[C@]2(C)C=C[C@@]1(OC)O2` [Compound 700] was tested, and the “biological activity on modification” value [1] was “enhancement of the biological activity” and the “tubulin polymerization properties / potencies” value [2] was “not always in line with their cytotoxicity effects”.

For `CO[C@]12C=C[C@](C)(O1)[C@@H](OC(=O)/C=C/c1cn(C)cn1)C[C@H]1C(C)=CC[C@H](C(C)C)[C@H]1/C=C\2C(=O)OCCC(C)C` [Compound 710], the “biological activity on modification” value [1] was “reversal of the trend”.

`COC(OC)/C1=C/[C@@H]2[C@@H](C(C)C)CC=C(C)[C@@H]2C[C@H](OC(=O)/C=C/c2cn(C)cn2)[C@]2(C)C=C[C@@]1(OC)O2` [Compound 730] was tested, and the “cytotoxicity / biological activity” value [3] was “Particularly striking” and the cytotoxicity potency [4] was “potencies comparable or higher that those of the natural substances”.

For `CCCOC(=O)/C1=C/[C@@H]2[C@@H](C(C)C)CC=C(C)[C@@H]2C[C@H](OC(=O)/C=C/c2cn(C)cn2)[C@]2(C)C=C[C@@]1(OCC(F)(F)F)O2` [Compound 840], the cytotoxicity potency [4] was “overall decrease of cytotoxicity”.

With `CCO[C@]12C=C[C@](C)(O1)[C@@H](OC(=O)/C=C/c1cn(C)cn1)C[C@H]1C(C)=CC[C@H](C(C)C)[C@H]1/C=C\2C(=O)OC` [Compound 850] the “biological activity … SAR statement” value [1] was “equal or superior biological activities”, the “tubulin polymerization properties / potencies” value [2] was “superior tubulin polymerization properties to those of either sarcodictyins A (7) or B (8)” and the “cytotoxicity / biological activity” value [3] was “Particularly striking”. The cytotoxicity potency [4] was “potencies comparable or higher that those of the natural substances”.

For `CO[C@]12C=C[C@](C)(O1)[C@@H](OC(=O)/C=C/c1cn(C)cn1)C[C@H]1C(C)=CC[C@H](C(C)C)[C@H]1/C=C\2C(=O)OCc1c2ccccc2cc2ccccc12` [Compound 920], the “biological activity … SAR statement” value [1] was “equal or superior biological activities”, the “tubulin polymerization properties / potencies” value [2] was “modest” and the “cytotoxicity / biological activity” value [3] was “Particularly striking”.

In the case of `COC(=O)/C1=C/[C@@H]2[C@@H](C(C)C)CC=C(C)[C@@H]2C[C@H](OC(=O)/C=C/c2ccccc2)[C@]2(C)C=C[C@@]1(OC)O2` [Compound 990], the “biological activity … SAR statement” value [1] is reported as “only negligible biological activity”.

With `COC(=O)/C1=C/[C@@H]2[C@@H](C(C)C)CC=C(C)[C@@H]2C[C@H](OC(=O)Nc2ccccc2)[C@]2(C)C=C[C@@]1(OC)O2` [Compound 1010] the “biological activity … SAR statement” value [1] was “complete loss of activity”.

`COC(=O)/C1=C/[C@@H]2[C@@H](C(C)C)CC=C(C)[C@@H]2C[C@H](OC(C)=O)[C@]2(C)C=C[C@@]1(OC)O2` [Compound 1070] was tested, and the “biological activity … SAR statement” value [1] was “complete loss of activity”.

For `CO[C@]12C=C[C@](C)(O1)[C@@H](OC(=O)/C=C/c1cn(C)cn1)C[C@H]1C(C)=CC[C@H](C(C)C)[C@H]1/C=C\2CO[C@@H]1OC[C@@H](O)[C@@H](O)[C@@H]1OC(C)=O` [eleutherobin], the “biological activity … SAR statement” value [1] was “potent biological actions”.
